Counter-ions that a name gives are not always drawn.
Key:
[1] = Safety study with serum biochemical analysis after third weekly administration; format: in vivo, Immunocompetent mice
From the text: Furthermore, to confirm that exosome 10 retains its biocompatibility after loading the target drug and is safe for in vivo use, please refer to Table 5, an animal model is applied to evaluate the safety. Immunocompetent mice were divided into control group (Control), vehicle control group (Vehicle control), drug treatment group (Dox), and exosome treatment groups 1-3 (Dox@EXO 1-3). The groups above were weekly administered Lactated Ringer's solution, the exosomes 10, the target drug (Doxorubicin, Dox-HCl), and the exosomes 10 loaded with the target drug Dox-HCl (Dox@EXO) in concentrations of 2 mg/kg, 6 mg/kg, and 12 mg/kg respectively. After receiving the third administration, blood samples were collected for serum biochemical analysis to monitor organ function.

[2] = test system: breast cancer cells (MDA-MB-231); assay: Orthotopic breast cancer animal model, IVIS luminescence; format: in vivo, mice; settings: day 49, two weeks after final administration; tail vein injections for six weeks; luminescence converted into tumor volume
From the text: Referring to FIG. 9C, a breast cancer animal model was applied to evaluate the efficacy and biocompatibility of exosome 10 loaded with the target drug. In this experiment, the breast cancer animal model was constructed by injecting the breast cancer cells (MDA-MB-231) orthotopically into the mammary fat pad of the mice and then culturing the breast cancer cells into tumor. The mice were divided into drug treatment groups 1 to 3 and control group 1. The breast cancer animal model in drug treatment groups 1 to 3 were received the target drug directly (Dox-HCl), the liposome injection loaded with the target drug Dox-HCl (Dox@Lipo), and the exosomes 10 loaded with the target drug Dox-HCl (Dox@EXO) respectively; the control group 1 is the group treated with a placebo (PBS) (Ctrl).
Each group (groups 1-3 and control group 1) of the breast cancer animal model described above was received tail vein injections continuously for six weeks administration following the injection of breast cancer cells (MDA-MB-231). Tumor development was monitored and imaged using an in vivo imaging system (IVIS Imaging System), which measured tumor progression based on a luminescence signal of the tumor.

[3] = 12 mg/kg weekly, after third administration, serum

## COc1cccc2c1C(=O)c1c(O)c3c(c(O)c1C2=O)C[C@@](O)(C(=O)CO)C[C@@H]3O[C@H]1C[C@H](N)[C@H](O)[C@H](C)O1 [Dox-HCl, Doxorubicin hydrochloride]
[1]; [3]
  ALB (Albumin): 2.68 g/dL
  ALP (Alkaline Phosphatase): 182.52 U/L
  ALT: 29.52 U/L
  AMY (Amylase): 3424.8 U/L
  AST: 76.88 U/L
  CK (Creatine kinase): 236.06 U/L
  LDH (Lactate Dehydrogenase): 648.28 U/L
[1]; Dox 12 mg/kg, Dox@EXO 2, 6 and 12 mg/kg
  Difference in serum biochemical parameters versus control group (One-way ANOVA): significant differences in liver function markers such as albumin (ALB) and alkaline phosphatase (ALP)
[2]
  Inhibition rate of tumor growth: 73.8%
